From patent publication US20230011869A1 (Hoffmann-La Roche Inc., priority 2018, published 2023)
Where a name gives a salt, the structure may show the parent alone.

The compounds below were run on Acinetobacter baumannii ATCC17978 (assay: Antimicrobial susceptibility testing: 90% growth inhibitory concentration (IC90) determination, Iso-Sensitest broth). Conditions: 90% growth inhibitory concentration, Acinetobacter baumannii ATCC17978, Iso-Sensitest broth, OD 600 nm over 16 h; read-out: ATCC17978 IC90.
Type: cell-based
Procedure, shortened: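 A. baumannii ATCC17978 grown in Iso-Sensitest broth across 10 compound concentrations at 35±2 °C.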
In the case of `COc1ccc(-c2cnc3c(Nc4ccc(C(=O)N5CCN(C(=O)[C@H]6CCNC[C@@H]6O)CC5)c(C)c4)nccn23)c(Cl)c1F` [Example 219, [4-[[3-(2-chloro-3-fluoro-4-methoxy-phenyl)imidazo[1,2-a]pyrazin-8-yl]amino]-2-methyl-phenyl]-[4-[(3R,4S)-3-hydroxypiperidine-4-carbonyl]piperazin-1-yl]methanone formate], the IC90 is reported as 0.22 µM.
`COc1ccc(-c2cnc3c(Nc4ccc(C(=O)N5CCN(CCOCCO)CC5)c(C)c4)nccn23)cc1F` [Example 411, [4-[[3-(3-fluoro-4-methoxyphenyl)imidazo[1,2-a]pyrazin-8-yl]amino]-2-methylphenyl]-[4-[2-(2-hydroxyethoxy)ethyl]pipera-zin-1-yl]methanone] was tested, and the IC90 was 0.72 µM.
`COc1cc(F)c(-c2cnc3c(Nc4ccc(C(=O)N5CCC(CN)CC5)c(C)c4)nccn23)cc1Cl` [Example 107, (4-(aminomethyl)piperidin-1-yl)(4-((3-(5-chloro-2-fluoro-4-methoxyphenyl)imidazo[1,2-a]pyrazin-8-yl)amino)-2-methylphenyl)methanone] was tested, and the IC90 was 0.29 µM.
In the case of `Cc1cc(Nc2nccn3c(-c4ccc(OC(F)F)cc4)cnc23)ccc1C(=O)N1CC[C@@H](C(=O)N2CCNCC2)[C@@H](O)C1` (racemic) [Example 530, [4-[[3-[4-(difluoromethoxy)phenyl]imi-dazo[1,2-a]pyrazin-8-yl]amino]-2-methylphenyl]-[rac-(3R,4R)-3-hydroxy-4-(piperazine-1-carbonyl)piperidin-1-yl]methanone; 2,2,2-trifluoroacetic acid], the IC90 is reported as 0.63 µM.
`COc1ccc(-c2cnc3c(Nc4ccc(C(=O)N5CCN(C(=O)C6CCNCC6)CC5)c(C)c4)nccn23)c(F)c1F` [Example 485, [4-[[3-(2,3-difluoro-4-methoxyphenyl)imidazo[1,2-a]pyrazin-8-yl]amino]-2-methylphenyl]-[4-(piperidine-4-carbonyl)piperazin-1-yl]methanone; hydrochloride] gave an IC90 of 0.19 µM.
In the case of `COc1ccc(-c2cnc3c(Nc4ccc(C(=O)N5CCNC(CO)C5)c(C)c4)nccn23)cc1F` (stereo not shown) [Example 422, [4-[[3-(3-fluoro-4-methoxyphenyl)imidazo[1,2-a]pyrazin-8-yl]amino]-2-methylphenyl]-[3-(hydroxymethyl)piperazin-1-yl]methanone], the IC90 is reported as 1.1 µM.
For `COc1ccc(-c2cnc3c(Nc4ccc(C(=O)N5CCN(C(=O)N[C@H](C)CN)CC5)c(C)c4)nccn23)c(F)c1F` [Example 148, N-[(1R)-2-amino-1-methyl-ethyl]-4-[4-[[3-(2,3-difluoro-4-methoxy-phenyl)imidazo[1,2-a]pyrazin-8-yl]amino]-2-methyl-benzoyl]piperazine-1-carboxamide hydrochloride], the IC90 was 0.21 µM.
`Cc1cc(Nc2nccn3c(-c4ccc(OC(F)F)cc4)cnc23)ccc1C(=O)N1CCN(C(=O)CN(C)C)CC1` [Example 38, 1-(4-(4-((3-(4-(difluoromethoxy)phenyl)imidazo[1,2-a]pyrazin-8-yl)amino)-2-methylbenzoyl)piperazin-1-yl)-2-(dimethylamino)ethanone] showed an IC90 of 0.22 µM.
`C#CCOc1ccc(-c2cnc3c(Nc4ccc(C(=O)N5CCC(C(=O)NCCCNC)CC5)c(C)c4)nccn23)c(F)c1F` [Example 305, 1-[4-[[3-(2,3-difluoro-4-prop-2-ynoxyphenyl)imidazo[1,2-a]pyrazin-8-yl]amino]-2-methylbenzoyl]-N-[3-(methylamino)propyl]piperi-dine-4-carboxamide] was tested, and the IC90 was 0.1 µM.
In the case of `COc1ccc(-c2cnc3c(Nc4ccc(C(=O)N5CCC(C(=O)NC(CN(C)C)C(=O)O)CC5)c(C)c4)nccn23)cc1F` (stereo not shown) [Example 278, 3-(dimethylamino)-2-[[1-[4-[[3-(3-fluoro-4-methoxyphenyl)imidazo[1,2-a]pyrazin-8-yl]amino]-2-methylbenzoyl]piperidine-4-carbonyl]amino]propanoic acid], the IC90 is reported as 3.8 µM.
`COc1ccc(-c2cnc3c(Nc4ccc(C(=O)N5CCC(C(=O)N6CCN(c7nccn7C)CC6)CC5)c(C)c4)nccn23)cc1F` [Example 397, [4-[[3-(3-fluoro-4-methoxyphenyl)imidazo[1,2-a]pyrazin-8-yl]amino]-2-methylphenyl]-[4-[4-(1-methylimidazol-2-yl)piperazine-1-carbonyl]piperidin-1-yl]methanone] gave an IC90 of 0.36 µM.
Compound `COc1ccc(-c2cnc3c(Nc4ccc(C(=O)N5CCC(C(=O)NCC6(O)CNC6)CC5)c(C)c4)nccn23)c(F)c1F` [Example 285, 1-[4-[[3-(2,3-difluoro-4-methoxyphenyl)imidazo[1,2-a]pyrazin-8-yl]amino]-2-methylbenzoyl]-N-[(3-hydroxyazetidin-3-yl)methyl]piperidine-4-carboxamide] has an IC90 of 0.071 µM.
Compound `CNCCNC(=O)C1CCN(C(=O)c2ccc(Nc3nccn4c(-c5ccc(OC)c(F)c5)cnc34)cc2C)CC1` [Example 40, 1-(4-((3-(3-fluoro-4-methoxyphenyl)imidazo[1,2-a]pyrazin-8-yl)amino)-2-methylbenzoyl)-N-(2-(methylamino)ethyl)piperidine-4-carboxamide hydrochloride] has an IC90 of 0.28 µM.
Work on `Cc1cc(Nc2nccn3c(-c4ccc(OC(F)F)cc4)cnc23)ccc1C(=O)N1CCC(N2CCN(C)CC2)CC1` [Example 36, (4-((3-(4-(difluoromethoxy)phenyl)imidazo[1,2-a]pyrazin-8-yl)amino)-2-methylphenyl)(4-(4-methylpiperazin-1-yl)piperidin-1-yl)methanone] yielded an IC90 of 0.25 µM.
For `Cc1cc(Nc2nccn3c(-c4ccc(OCC#N)c(F)c4F)cnc23)ccc1C(=O)N1CCN(C(=O)C2(F)CCNCC2)CC1` [Example 481, 2-[2,3-difluoro-4-[8-[4-[4-(4-fluoropiperidine-4-carbonyl)piperazine-1-carbonyl]-3-methylanilino]imidazo[1,2-a]pyrazin-3-yl]phenoxy]acetonitrile; for-mic acid], the IC90 was 0.15 µM.
With `Cc1cc(Nc2nccn3c(-c4ccc(OC(F)F)cc4)cnc23)ccc1C(=O)N1CCN(C(=O)[C@@H]2C[C@H](O)CN2)CC1` [Example 182, [4-[[3-[4-(difluoromethoxy)phenyl]imidazo[1,2-a]pyrazin-8-yl]amino]-2-methyl-phenyl]-[4-[(2S,4S)-4-hydroxypyrrolidine-2-carbonyl]piperazin-1-yl]methanone hydrochloride hydrochloride] the IC90 was 0.18 µM.

Same assay, conditions: Acinetobacter baumannii, ATCC17978, 16 h, read-out: ATCC17978 IC90, 90% growth inhibitory concentration, Acinetobacter baumannii ATCC17978, Iso-Sensitest broth, OD 600 nm over 16 h
In the case of `Cc1cc(Nc2nccn3c(-c4ccc(OC(F)F)cc4)cnc23)ccc1C(=O)N1CCC(C(=O)NCC2(F)CNC2)CC1` [Example 310, 1-[4-[[3-[4-(difluoromethoxy)phenyl]imi-dazo[1,2-a]pyrazin-8-yl]amino]-2-methylbenzoyl]-N-[(3-fluoroazetidin-3-yl)methyl]piperidine-4-carboxamide; hydrochloride], the IC90 is reported as 0.14 µM.
`Cc1cc(Nc2nccn3c(-c4ccc(OC(F)F)cc4)cnc23)ccc1C(=O)N1CCC(C(=O)N[C@@H]2CCNC2)CC1` [Example 263, 1-[4-[[3-[4-(difluoromethoxy)phenyl]imi-dazo[1,2-a]pyrazin-8-yl]amino]-2-methylbenzoyl]-N-[(3R)-pyrrolidin-3-yl]piperidine-4-carboxamide; hydrochloride] showed an IC90 of 1.1 µM.
`Cc1cc(Nc2nccn3c(-c4ccc(O[C@H](C)C#N)c(F)c4F)cnc23)ccc1C(=O)N1CCN(C(=O)[C@@H]2C[C@](C)(O)CN2)CC1` [Example 567, (2R)-2-[2,3-difluoro-4-[8-[4-[4-[(2S,4S)-4-hydroxy-4-methyl-pyrrolidine-2-carbonyl]piperazine-1-carbonyl]-3-methyl-anilino]imidazo[1,2-a]pyrazin-3-yl]phenoxy]propanenitrile formate] gave an IC90 of 0.386 µM.
With `Cc1cc(Nc2nccn3c(-c4ccc(OC(F)F)cc4)cnc23)ccc1C(=O)N1CCC(C(=O)NC[C@H]2CNC(=O)O2)CC1` [Example 298, 1-[4-[[3-[4-(difluoromethoxy)phenyl]imi-dazo[1,2-a]pyrazin-8-yl]amino]-2-methylbenzoyl]-N-[[(5S)-2-oxo-1,3-oxazolidin-5-yl]methyl]piperidine-4-carboxamide] the IC90 was 0.2 µM.
Compound `COc1ccc(-c2cnc3c(Nc4ccc(C(=O)N5CC6(CCN6)C5)c(C)c4)nccn23)cc1F` [Example 421, 1,6-diazaspiro[3.3]heptan-6-yl-[4-[[3-(3-fluoro-4-methoxyphenyl)imidazo[1,2-a]pyrazin-8-yl]amino]-2-methylphenyl]methanone; 2,2,2-trifluoroacetic acid] has an IC90 of 1.1 µM.
`Cc1cc(Nc2nccn3c(-c4ccc(OC(F)F)cc4)cnc23)ccc1C(=O)N1CCN(C(=O)[C@@H](N)C(C)C)CC1` [Example 317, (2S)-2-amino-1-[4-[4-[[3-[4-(difluoromethoxy)phenyl]imi-dazo[1,2-a]pyrazin-8-yl]amino]-2-methylbenzyol]piperazin-1-yl]-3-methylbutan-1-one; hydrochloride] showed an IC90 of 0.24 µM.
`COc1ccc(-c2cnc3c(Nc4ccc(C(=O)N5CCC(C(=O)NCC(O)CN)CC5)c(C)c4)nccn23)cc1F` (stereo not shown) [Example 55, N-(3-amino-2-hydroxypropyl)-1-(4-((3-(3-fluoro-4-methoxyphenyl)imidazo[1,2-a]pyrazin-8-yl)amino)-2-methylbenzoyl)piperidine-4-carboxamide 2,2,2-trifluoroacetate] gave an IC90 of 0.39 µM.
Compound `Cc1cc(Nc2nccn3c(-c4ccc(OC(F)F)cc4)cnc23)ccc1C(=O)N1CCN(C(=O)N2CCNCC2)CC1` [Example 518, [4-[[3-[4-(difluoromethoxy)phenyl]imi-dazo[1,2-a]pyrazin-8-yl]amino]-2-methylphenyl]-[4-(piperazine-1-carbonyl)piperazin-1-yl]methanone; hydrochloride] has an IC90 of 0.17 µM.
In the case of `Cc1cc(Nc2nccn3c(-c4ccc(OC(F)F)cc4)cnc23)ccc1C(=O)N1CCC(C(=O)N2C[C@@H](O)[C@@H](O)[C@@H](O)C2)CC1` [Example 326, [4-[[3-[4-(difluoromethoxy)phenyl]imi-dazo[1,2-a]pyrazin-8-yl]amino]-2-methylphenyl]-[4-[rac-(3R,5S)-3,4,5-trihydroxypiperidine-1-carbonyl]piperidin-1-yl]methanone], the IC90 is reported as 0.36 µM.
